Experimental data from patent US20200031820A1, “3-CARBOXYLIC ACID PYRROLES AS NRF2 REGULATORS” (GLSXOSMITHKLINE INTELLECTUAL PROPERTY DEVELOPMENT LIMITED, priority 2016, published 2020).

Key:
[1] = molecular target: T1, Keap1 (321-609) Kelch domain / TAMRA-labeled 16mer NRF2 peptide (ETGE motif) (Homo sapiens, UniProt Q14145); assay: NRF2-Keap1 FP Assay; assay type: binding; conditions: 20 nM Keap1 (321-609), 8 nM Tamra labeled peptide
T1 construct: the Kelch domain (321-609) of Keap1 is used
Source text: One model for the NRF2-Keap1 interaction is through two binding sites in the Neh2 domain on NRF2. The two sites are referred to as the DLG binding motif (latch domain, uM affinity) and the ETGE binding motif (hinge domain, nM affinity). The Keap1 protein consists of an N-terminal region (NTR), a broad complex, tramtrack, and brick a'brac domain (BTB), an intervening region (IVR), a double glycine repeat domain (DGR or Kelch), and a C-terminal region. The DLG and ETGE motifs of NRF2's Neh2 domain bind to the Kelch domain of Keap1 at different affinities. In the Keap1 Kelch fluorescence polarization (FP) assay, a TAMRA-labeled 16mer peptide (AFFAQLQLDEETGEFL) containing the ETGE motif of NRF2 and the Kelch domain (321-609) of Keap1 is used. The assay determines if a compound interferes with the binding between Keap1 […] and the TAMRA-labeled peptide. Binding of TAMRA-labeled NRF2 peptide to Keap1 (321-609) results in a high FP signal. If a compound interferes with the binding between the peptide and the protein, it will cause the assay signal to decrease. Thus, assay signal is inversely proportional to binding inhibition.
100 nl of 100× compound dose response curves (serial 3-fold dilutions) in DMSO were stamped using an Echo liquid handling system (Labcyte) into 384-well low volume black assay plates (Greiner, #784076), with DMSO in columns 6 and 18. The top concentration of compound was located in columns 1 and 13. Keap1 (321-609) was diluted to 40 nM (2×) in 1× assay buffer (50 mM Tris, pH 8.0, 100 mM NaCl, 5 mM MgCl2, 1 mM DTT, 2 mM CHAPS, and 0.005% BSA) and 5 ul was added using a Multidrop Combi (Thermo Electron Corporation) equipped with a metal tip dispenser to all wells of the compound plate, except column 18. Column 18 received only 5 ul of assay buffer. Immediately, 5 uL of 16 nM (2×) of Tamra labeled peptide (AFFAQLQLDEETGEFL, 21st Century Biochemicals) was added to all wells of the plate. The plates were spun at 500 rpm for 1 min, incubated for 1 hr at room temperature, and read on an Analyst GT (Molecular Devices) equipped with excitation (530/25 nm) and emission (580/10 nm) filters designed for Tamra probes. A 561 nm dichroic mirror was also used in the Analyst. The final assay concentrations of Keap1 (321-609) and Tamra labeled peptide were 20 nM and 8 nM, respectively. Fluorescence measurements, represented as mP, were used in the transformation of the data. Compound activity was calculated based on percent inhibition, normalized against controls in the assay (Control 1 contains the Tamra peptide and Keap1 (321-609) together (0% response) and control 2 contains the Tamra peptide alone (100% response)). Data analysis was handled using the software package Abase XE (Surrey, United Kingdom. The % inhibition values were calculated by the equation:
100−(100*((compound response−average control 2)/(average control 1−average control2))). For calculation of pIC50s, Abase XE uses a four parameter equation.
IC50s<1 nM (+++++), IC50s 1 nM-10 nM (++++), IC50s 10-100 nM (+++), IC50s 100 nM-1 μM (++), IC50s 1-10 μM (+), IC50s >10 μM (−), or were not determined (ND).

[2] = test system: NQO1 specific enzyme activity in BEAS-2B cells (marker for NRF2 activation); assay: Beas2B NQO1 MTT Assay; assay type: cell-based; conditions: Homo sapiens, NQO1 specific activity induction, 48 hours with compound
Source text: NAD(P)H:quinone oxidoreductase 1 (NQO1), also called DT diaphorase, is a homodimeric FAD-containing enzyme that catalyses obligatory NAD(P)H-dependent two-electron reductions of quinones and protects cells against the toxic and neoplastic effects of free radicals and reactive oxygen species arising from one-electron reductions. The transcription of NQO1 is finely regulated by NRF2, and thus NQO1 activity is a good marker for NRF2 activation. On day one, frozen BEAS-2B cells (ATCC) were thawed in a water bath, counted, and re-suspended at a concentration of 250,000 cells/mL. Fifty microliters of cells were plated in 384 well black clear-bottomed plates. Plates were incubated at 37° C., 5% CO2 overnight. On day two, plates were centrifuged and 50 nL of compound or controls were added to the cells. Plates were then incubated at 37° C., 5% CO2 for 48 hours. On day four, medium was aspirated from the plate and crude cell lysates were made by adding 13 uL of 1× Cell Signaling Technologies lysis buffer with 1 Complete, Mini, EDTA-free Protease Inhibitor Tablet (Roche) for each 10 mL of lysis buffer. After lysis plates were incubated for 20 minutes at room temperature. Two microliters of lysate were removed for use in Cell Titer Glo assay (Promega) and MTT cocktail was prepared (Prochaska et. al. 1998) for measurement of NQO1 activity. Fifty microliters of MTT cocktail was added to each well, plate was centrifuged, and analysed on an Envision plate reader (Perkin Elmer) using Absorbance 570 nm label for 30 minutes. Product formation was measured kinetically and the pEC50 of NQO1 specific activity induction was calculated by plotting the change in absorbance (Delta OD/min) versus the log of compound concentration followed by 3-parameter fitting.
EC50s <1 nM (+++++), EC50s 10 nM-1 nM (++++), EC50s 10-100 nM (+++), EC50s 100 nM-1 μM (++), EC50s 1-10 μM (+), EC50s >10 μM (−), or were not determined (ND).

T1 sequence (Q14145 321-609): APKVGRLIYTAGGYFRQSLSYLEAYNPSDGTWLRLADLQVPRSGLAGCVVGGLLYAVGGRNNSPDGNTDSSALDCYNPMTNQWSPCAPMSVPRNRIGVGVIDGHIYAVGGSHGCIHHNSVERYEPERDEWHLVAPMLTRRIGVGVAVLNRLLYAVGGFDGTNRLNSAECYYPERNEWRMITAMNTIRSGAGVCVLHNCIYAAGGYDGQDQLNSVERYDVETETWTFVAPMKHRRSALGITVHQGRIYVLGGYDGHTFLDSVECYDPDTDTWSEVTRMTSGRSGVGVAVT

## Cn1cc([C@@H]2C[C@H]2c2c(C(=O)O)ccn2-c2cccc(CN3Cc4cc(Br)ccc4OC(C)(C)C3)c2)nn1 (racemic) [Example 20]
[1]
  EC50: 10 to 100 nM
[2]
  EC50: 100 to 1000 nM

## Cn1cc([C@@H]2C[C@H]2c2c(C(=O)O)ccn2-c2cccc(CN3Cc4ccccc4CC(C)(C)C3)c2)nn1 (racemic) [Example 21]
[1]
  EC50: 10 to 100 nM
[2]
  EC50: 100 to 1000 nM

## CCCC[C@H]1Cc2ccccc2S(=O)(=O)N(Cc2cccc(-n3ccc(C(=O)O)c3[C@@H]3C[C@H]3c3cn(C)nn3)c2)C1 [Example 3, 1-(3-(((S)-4-butyl-1,1-dioxido-4,5-dihydrobenzo[f][1,2]thiazepin-2(3H)-yl)methyl)phenyl)-2-((1R,2R)-2-(1-methyl-1H-1,2,3-triazol-4-yl)cyclopropyl)-1H-pyrrole-3-carboxylic acid]
[1]
  EC50: 10 to 100 nM
[2]
  EC50: 10 to 100 nM

## CCCC[C@H]1Cc2ccc(C(F)(F)F)cc2S(=O)(=O)N(Cc2cccc(-n3ccc(C(=O)O)c3[C@@H]3C[C@H]3c3cn(C)nn3)c2)C1 [Example 6, 1-(3-(((S)-4-butyl-1,1-dioxido-8-(trifluoromethyl)-4,5-dihydrobenzo[f][1,2]thiazepin-2(3H)-yl)methyl)phenyl)-2-((1R,2R)-2-(1-methyl-1H-1,2,3-triazol-4-yl)cyclopropyl)-1H-pyrrole-3-carboxylic acid]
[1]
  EC50: 10 to 100 nM
[2]
  EC50: < 1 nM

## CC[C@H]1Cc2cc(C(F)(F)F)ccc2S(=O)(=O)N(Cc2cccc(-n3ccc(C(=O)O)c3[C@@H]3C[C@H]3c3cn(C)nn3)c2)C1 [Example 7, 1-(3-(((S)-4-ethyl-1,1-dioxido-7-(trifluoromethyl)-4,5-dihydrobenzo[f][1,2]thiazepin-2(3H)-yl)methyl)phenyl)-2-((1R,2R)-2-(1-methyl-1H-1,2,3-triazol-4-yl)cyclopropyl)-1H-pyrrole-3-carboxylic acid]
[1]
  EC50: 10 to 100 nM
[2]
  EC50: 1 to 10 nM

## C[C@H]1Cc2ccc(Br)cc2S(=O)(=O)N(Cc2cccc(-n3ccc(C(=O)O)c3[C@@H]3C[C@H]3c3cn(C)nn3)c2)C1 [Example 8, 1-(3-(((S)-8-bromo-4-methyl-1,1-dioxido-4,5-dihydrobenzo[f][1,2]thiazepin-2(3H)-yl)methyl)phenyl)-2-((1R,2R)-2-(1-methyl-1H-1,2,3-triazol-4-yl)cyclopropyl)-1H-pyrrole-3-carboxylic acid]
[1]
  EC50: 10 to 100 nM
[2]
  EC50: 1 to 10 nM

## CC[C@H]1Cc2ccc(Br)cc2S(=O)(=O)N(Cc2cccc(-n3ccc(C(=O)O)c3[C@@H]3C[C@H]3c3cn(C)nn3)c2)C1 [Example 9, 1-(3-(((S)-8-bromo-4-ethyl-1,1-dioxido-4,5-dihydrobenzo[f][1,2]thiazepin-2(3H)-yl)methyl)phenyl)-2-((1R,2R)-2-(1-methyl-1H-1,2,3-triazol-4-yl)cyclopropyl)-1H-pyrrole-3-carboxylic acid]
[1]
  EC50: 10 to 100 nM
[2]
  EC50: < 1 nM

## C[C@H](Oc1cccc(-c2cccc(-n3ccc(C(=O)O)c3[C@H]3C[C@@H]3c3cn(C)nn3)c2)c1)C1CCCCC1 [Example 17, 1-(3′-((S)-1-cyclohexylethoxy)-[1,1′-biphenyl]-3-yl)-2-((1S,2S)-2-(1-methyl-1H-1,2,3-triazol-4-yl)cyclopropyl)-1H-pyrrole-3-carboxylic acid]
[1]
  EC50: 10 to 100 nM
[2]
  EC50: 10 to 100 nM

## CCC[C@@H]1CCCCN1C(=O)c1cccc(-c2cccc(-n3ccc(C(=O)O)c3[C@@H]3C[C@H]3c3cn(C)nn3)c2)c1Br [Example 22]
[1]
  EC50: 10 to 100 nM
[2]
  EC50: 10 to 100 nM

## CCC[C@@H]1CCCCN1C(=O)c1cc(F)cc(-c2cccc(-n3ccc(C(=O)O)c3[C@@H]3C[C@H]3c3cn(C)nn3)c2)c1 [Example 23]
[1]
  EC50: 10 to 100 nM
[2]
  EC50: 10 to 100 nM

## CCC[C@@H]1CCCCN1C(=O)c1cccc(-c2cccc(-n3ccc(C(=O)O)c3[C@@H]3C[C@H]3c3cn(C)nn3)c2)c1C(F)(F)F [Example 24]
[1]
  EC50: 100 to 1000 nM
[2]
  EC50: 1000 to 10000 nM
